Assay results from US20080026996A1, “Selective Vpac2 Receptor Reptide Agonists” (ELI LILLY AND COMPANY, priority 2004, published 2008).
Where a SMILES comes first, the peptide text is derived from it. Where no end group is shown, it is not given here. [ ]: non-standard residue; d: D form. The star is where a group is joined. Orn = NCCC[C@H](N)C(=O)O; Hexanoyl = CCCCCC(=O)*; Aib = CC(C)(N)C(=O)O

Key:
[1] = Rat serum stability studies (remaining active peptide by DiscoveRx cAMP on CHO-VPAC2 cells); assay type: in vitro ADME
Description: Store the aliquot with aprotinin at 4° C. Store the aliquot without aprotinin at 37° C. […] […] Incubate in room temperature for 30 minutes. Remove the supernatant. […] Incubate on the shaker (300 rpm) for 1 hour. Proceed as normal with the DiscoveRx kit. Include cAMP standards in column 12. Determine EC50 values from the cAMP assay data.

human VPAC2 = target: T1, human VPAC2 (Homo sapiens, UniProt P41587); test: Alpha screen cAMP in vitro potency, human VPAC2 receptor; assay type: cell-based; details: cAMP generation; single result from two analyses performed in a single run; read-out: Human VPAC2 Receptor: Alpha Screen EC50
T1 construct: expressed in transfected cells
T1 sequence (P41587 24-438): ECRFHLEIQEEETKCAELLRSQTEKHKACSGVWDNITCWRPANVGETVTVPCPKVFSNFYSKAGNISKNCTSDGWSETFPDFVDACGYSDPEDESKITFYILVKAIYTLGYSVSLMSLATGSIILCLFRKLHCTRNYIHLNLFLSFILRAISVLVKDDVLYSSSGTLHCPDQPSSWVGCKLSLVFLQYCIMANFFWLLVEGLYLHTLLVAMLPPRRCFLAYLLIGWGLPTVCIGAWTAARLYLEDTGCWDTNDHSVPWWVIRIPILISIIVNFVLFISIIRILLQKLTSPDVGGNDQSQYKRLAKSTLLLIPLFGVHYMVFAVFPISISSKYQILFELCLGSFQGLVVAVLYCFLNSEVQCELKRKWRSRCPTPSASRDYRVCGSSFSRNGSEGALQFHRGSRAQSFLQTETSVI
Method in brief: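 Cells were detached with enzyme-free dissociation buffer, washed into stimulation buffer and used at 50,000 cells per data point. Stimuli and AlphaScreen acceptor beads were added for 60 minutes, then lysis buffer with donor beads for 60 to 120 minutes; the AlphaScreen signal reports intracellular cAMP.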

With `CCCCCC(=O)N[C@@H](Cc1c[nH]cn1)C(=O)N[C@@H](CO)C(=O)N[C@@H](CC(=O)O)C(=O)N[C@@H](C)C(=O)N[C@H](C(=O)N[C@@H](Cc1ccccc1)C(=O)N[C@H](C(=O)N[C@@H](CC(=O)O)C(=O)N[C@@H](CC(N)=O)C(=O)N[C@@H](Cc1ccc(O)cc1)C(=O)N[C@H](C(=O)N[C@@H](CCCNC(=N)N)C(=O)N[C@@H](CC(C)C)C(=O)N[C@@H](CCCNC(=N)N)C(=O)N[C@@H](CCCNC(=N)N)C(=O)N[C@@H](CCC(N)=O)C(=O)N[C@H](C(=O)N[C@@H](C)C(=O)N[C@@H](C)C(=O)N[C@@H](CCCNC(=N)N)C(=O)N[C@@H](CCCCN)C(=O)N[C@@H](Cc1ccc(O)cc1)C(=O)N[C@@H](CC(C)C)C(=O)N[C@@H](CCC(N)=O)C(=O)N[C@@H](CO)C(=O)N[C@H](C(=O)N[C@@H](CCCNC(=N)N)C(=O)N[C@@H](CC(N)=O)C(=O)NCC(=O)NCC(=O)N1CCC[C@H]1C(=O)N[C@@H](CO)C(=O)N[C@@H](CO)C(=O)NCC(=O)N[C@@H](C)C(=O)N1CCC[C@H]1C(=O)N1CCC[C@H]1C(=O)N1CCC[C@H]1C(=O)N[C@@H](CO)C(=O)O)[C@@H](C)CC)C(C)C)[C@@H](C)O)[C@@H](C)O)C(C)C` [Agonist P216] (Hexanoyl-HSDAVFTDNYTRLRRQVAARKYLQSIRNGGPSSGAPPPS-OH; C-terminus assumed) the “Rat Serum Stability (estimated purity in % after 18 hours)” value [1] was 0.06% and the EC50 (human VPAC2) was 0.11 nM.
With `CCCCCC(=O)N[C@@H](Cc1c[nH]cn1)C(=O)N[C@@H](CO)C(=O)N[C@@H](CC(=O)O)C(=O)N[C@@H](C)C(=O)N[C@H](C(=O)N[C@@H](Cc1ccccc1)C(=O)N[C@H](C(=O)N[C@@H](CC(=O)O)C(=O)N[C@@H](CC(N)=O)C(=O)N[C@@H](Cc1ccc(O)cc1)C(=O)N[C@H](C(=O)N[C@@H](CCCNC(=N)N)C(=O)N[C@@H](CC(C)C)C(=O)N[C@@H](CCCNC(=N)N)C(=O)NC(C)(C)C(=O)N[C@@H](CCC(N)=O)C(=O)N[C@H](C(=O)N[C@@H](C)C(=O)N[C@@H](C)C(=O)NC(C)(C)C(=O)N[C@@H](CCCCN)C(=O)N[C@@H](Cc1ccc(O)cc1)C(=O)N[C@@H](CC(C)C)C(=O)N[C@@H](CCC(N)=O)C(=O)N[C@@H](CO)C(=O)N[C@H](C(=O)N[C@@H](CCCCN)C(=O)N1CCC[C@H]1C(=O)N[C@@H](CCCCN)C(=O)NCC(=O)NCC(=O)N1CCC[C@H]1C(=O)N[C@@H](CO)C(=O)N[C@@H](CO)C(=O)NCC(=O)N[C@@H](C)C(=O)N1CCC[C@H]1C(=O)N1CCC[C@H]1C(=O)N1CCC[C@H]1C(=O)N[C@@H](CO)C(=O)O)[C@@H](C)CC)C(C)C)[C@@H](C)O)[C@@H](C)O)C(C)C` [Agonist P350] (Hexanoyl-HSDAVFTDNYTRLR[Aib]QVAA[Aib]KYLQSIKPKGGPSSGAPPPS-OH; C-terminus assumed) the “Rat Serum Stability (estimated purity in % after 18 hours)” value [1] was 25.83% and the EC50 (human VPAC2) was 0.13 nM.
In the case of `CCCCCC(=O)N[C@@H](Cc1c[nH]cn1)C(=O)N[C@@H](CO)C(=O)N[C@@H](CC(=O)O)C(=O)N[C@@H](C)C(=O)N[C@H](C(=O)N[C@@H](Cc1ccccc1)C(=O)N[C@H](C(=O)N[C@@H](CC(=O)O)C(=O)N[C@@H](CC(N)=O)C(=O)N[C@@H](Cc1ccc(O)cc1)C(=O)N[C@H](C(=O)N[C@@H](CCCNC(=N)N)C(=O)N[C@@H](CC(C)C)C(=O)N[C@@H](CCCNC(=N)N)C(=O)NC(C)(C)C(=O)N[C@@H](CCC(N)=O)C(=O)N[C@H](C(=O)N[C@@H](C)C(=O)N[C@@H](C)C(=O)NC(C)(C)C(=O)N[C@@H](CCCCN)C(=O)N[C@@H](Cc1ccc(O)cc1)C(=O)N[C@@H](CC(C)C)C(=O)N[C@@H](CCC(N)=O)C(=O)N[C@@H](CO)C(=O)N[C@H](C(=O)N[C@@H](CCCCN)C(=O)N[C@@H](CCCCN)C(=O)NCC(=O)NCC(=O)N1CCC[C@H]1C(=O)N[C@@H](CO)C(=O)N[C@@H](CO)C(=O)NCC(=O)N[C@@H](C)C(=O)N1CCC[C@H]1C(=O)N1CCC[C@H]1C(=O)N1CCC[C@H]1C(=O)N[C@@H](CO)C(=O)O)[C@@H](C)CC)C(C)C)[C@@H](C)O)[C@@H](C)O)C(C)C` [Agonist P351], the “Rat Serum Stability (estimated purity in % after 18 hours)” value [1] is reported as 18.52% and the EC50 (human VPAC2) is reported as 0.11 nM.
With `CCCCCC(=O)N[C@@H](Cc1c[nH]cn1)C(=O)N[C@@H](CO)C(=O)N[C@@H](CC(=O)O)C(=O)N[C@@H](C)C(=O)N[C@H](C(=O)N[C@@H](Cc1ccccc1)C(=O)N[C@H](C(=O)N[C@@H](CC(=O)O)C(=O)N[C@@H](CC(N)=O)C(=O)N[C@@H](Cc1ccc(O)cc1)C(=O)N[C@H](C(=O)N[C@@H](CCCNC(=N)N)C(=O)N[C@@H](CC(C)C)C(=O)N[C@@H](CCCNC(=N)N)C(=O)NC(C)(C)C(=O)N[C@@H](CCC(N)=O)C(=O)N[C@H](C(=O)N[C@@H](C)C(=O)N[C@@H](C)C(=O)NC(C)(C)C(=O)N[C@@H](CCCCN)C(=O)N[C@@H](Cc1ccc(O)cc1)C(=O)N[C@@H](CC(C)C)C(=O)N[C@@H](CCC(N)=O)C(=O)N[C@@H](CO)C(=O)N[C@H](C(=O)N[C@@H](CCCCN)C(=O)NC(C)(C)C(=O)NCC(=O)NCC(=O)N1CCC[C@H]1C(=O)N[C@@H](CO)C(=O)N[C@@H](CO)C(=O)NCC(=O)N[C@@H](C)C(=O)N1CCC[C@H]1C(=O)N1CCC[C@H]1C(=O)N1CCC[C@H]1C(=O)N[C@@H](CO)C(=O)O)[C@@H](C)CC)C(C)C)[C@@H](C)O)[C@@H](C)O)C(C)C` [Agonist P355] the “Rat Serum Stability (estimated purity in % after 18 hours)” value [1] was 35.94% and the EC50 (human VPAC2) was 0.1 nM.
In the case of `CCCCCC(=O)N[C@@H](Cc1c[nH]cn1)C(=O)N[C@@H](CO)C(=O)N[C@@H](CC(=O)O)C(=O)N[C@@H](C)C(=O)N[C@H](C(=O)N[C@@H](Cc1ccccc1)C(=O)N[C@H](C(=O)N[C@@H](CC(=O)O)C(=O)N[C@@H](CC(N)=O)C(=O)N[C@@H](Cc1ccc(O)cc1)C(=O)N[C@H](C(=O)N[C@@H](CCCN)C(=O)N[C@@H](CC(C)C)C(=O)N[C@@H](CCCNC(=N)N)C(=O)NC(C)(C)C(=O)N[C@@H](CCC(N)=O)C(=O)N[C@@H](CC(C)C)C(=O)N[C@@H](C)C(=O)N[C@@H](C)C(=O)NC(C)(C)C(=O)N[C@@H](CCCCN)C(=O)N[C@@H](Cc1ccc(O)cc1)C(=O)N[C@@H](CC(C)C)C(=O)N[C@@H](CCC(N)=O)C(=O)N[C@@H](CO)C(=O)N[C@H](C(=O)N[C@@H](CCCN)C(=O)N[C@@H](CC(N)=O)C(=O)N[C@@H](CCCN)C(=O)NCC(=O)NCC(=O)N1CCC[C@H]1C(=O)N[C@@H](CO)C(=O)N[C@@H](CO)C(=O)NCC(=O)N[C@@H](C)C(=O)N1CCC[C@H]1C(=O)N1CCC[C@H]1C(=O)N1CCC[C@H]1C(=O)N[C@@H](CO)C(=O)O)[C@@H](C)CC)[C@@H](C)O)[C@@H](C)O)C(C)C` [Agonist P364] (Hexanoyl-HSDAVFTDNYT[Orn]LR[Aib]QLAA[Aib]KYLQSI[Orn]N[Orn]GGPSSGAPPPS-OH; C-terminus assumed), the “Rat Serum Stability (estimated purity in % after 18 hours)” value [1] is reported as 86.23% and the EC50 (human VPAC2) is reported as 0.11 nM.
In the case of `CCCCCC(=O)N[C@@H](Cc1c[nH]cn1)C(=O)N[C@@H](CO)C(=O)N[C@@H](CC(=O)O)C(=O)N[C@@H](C)C(=O)N[C@H](C(=O)N[C@@H](Cc1ccccc1)C(=O)N[C@H](C(=O)N[C@@H](CC(=O)O)C(=O)N[C@@H](CC(N)=O)C(=O)N[C@@H](Cc1ccc(O)cc1)C(=O)N[C@H](C(=O)N[C@@H](CCCN)C(=O)N[C@@H](CC(C)C)C(=O)N[C@@H](CCCNC(=N)N)C(=O)NC(C)(C)C(=O)N[C@@H](CCC(N)=O)C(=O)N[C@H](C(=O)N[C@@H](C)C(=O)N[C@@H](C)C(=O)NC(C)(C)C(=O)N[C@@H](CCCCN)C(=O)N[C@@H](Cc1ccc(O)cc1)C(=O)N[C@@H](CC(C)C)C(=O)N[C@@H](CCC(N)=O)C(=O)N[C@@H](CO)C(=O)N[C@H](C(=O)N[C@@H](CCCN)C(=O)N[C@@H](CC(N)=O)C(=O)N[C@@H](CCCN)C(=O)NCC(=O)NCC(=O)N1CCC[C@H]1C(=O)N[C@@H](CO)C(=O)N[C@@H](CO)C(=O)NCC(=O)N[C@@H](C)C(=O)N1CCC[C@H]1C(=O)N1CCC[C@H]1C(=O)N1CCC[C@H]1C(=O)N[C@@H](CO)C(=O)O)[C@@H](C)CC)[C@@H](C)CC)[C@@H](C)O)[C@@H](C)O)C(C)C` [Agonist P365] (Hexanoyl-HSDAVFTDNYT[Orn]LR[Aib]QIAA[Aib]KYLQSI[Orn]N[Orn]GGPSSGAPPPS-OH; C-terminus assumed), the “Rat Serum Stability (estimated purity in % after 18 hours)” value [1] is reported as 91.13% and the EC50 (human VPAC2) is reported as 0.13 nM.
With `CCCCCC(=O)N[C@@H](Cc1c[nH]cn1)C(=O)N[C@@H](CO)C(=O)N[C@@H](CC(=O)O)C(=O)N[C@@H](C)C(=O)N[C@H](C(=O)N[C@@H](Cc1ccccc1)C(=O)N[C@H](C(=O)N[C@@H](CC(=O)O)C(=O)N[C@@H](CC(N)=O)C(=O)N[C@@H](Cc1ccc(O)cc1)C(=O)N[C@H](C(=O)N[C@@H](C)C(=O)N[C@@H](CC(C)C)C(=O)N[C@@H](CCCNC(=N)N)C(=O)NC(C)(C)C(=O)N[C@@H](CCC(N)=O)C(=O)N[C@H](C(=O)N[C@@H](C)C(=O)N[C@@H](C)C(=O)NC(C)(C)C(=O)N[C@@H](CCCCN)C(=O)N[C@@H](Cc1ccc(O)cc1)C(=O)N[C@@H](CC(C)C)C(=O)N[C@@H](CCC(N)=O)C(=O)N[C@@H](CO)C(=O)N[C@H](C(=O)N[C@@H](CCCN)C(=O)N[C@@H](CC(N)=O)C(=O)N[C@@H](CCCN)C(=O)NCC(=O)NCC(=O)N1CCC[C@H]1C(=O)N[C@@H](CO)C(=O)N[C@@H](CO)C(=O)NCC(=O)N[C@@H](C)C(=O)N1CCC[C@H]1C(=O)N1CCC[C@H]1C(=O)N1CCC[C@H]1C(=O)N[C@@H](CO)C(=O)O)[C@@H](C)CC)C(C)C)[C@@H](C)O)[C@@H](C)O)C(C)C` [Agonist P366] the “Rat Serum Stability (estimated purity in % after 18 hours)” value [1] was 92.00% and the EC50 (human VPAC2) was 2.6 nM.
In the case of “Hexanoyl-HSDAVFTDNYTRLRKQVAAKKALQSIKNKRYGGPSSGAPPPS [Agonist P229]”, the “Rat Serum Stability (estimated purity in % after 18 hours)” value [1] is reported as under 5.00% and the EC50 (human VPAC2) is reported as 2.6 nM.
